Test results as given in patent US20240116889A1, “ANTIVIRAL COMPOUNDS AND METHODS” (priority 2019, published 2024).

Columns and labels:
USSR H1N1 virus [1] = format: cell-based, influenza A virus (A/USSR/77)
USSR H1N1 virus [2] = format: cell-based, influenza A virus (A/USSR/77); remark: listed apart in the source
NPTr cells = details: for cell viability after priming: 30 min priming at doses used for infection studies
[3] = system: extracellular Ca^2+ influx; test: Intracellular Ca2+ monitoring assay (Fluo-8) in NPTr cells; format: cell-based, pig
human coronavirus OC43 = format: cell-based; details: MRC-5 cells; TG 0.05 or 0.5 μM 30 min pre-infection; HC pre-infection or continuous
SARS-CoV-2 = SARS-CoV-2 replication in Calu-3 cells (RT-qPCR of media); format: cell-based; details: Calu-3 cells; […]; HC primed and continuously present
A549 cells = test: Cell viability of A549 cells (CellTiter-Glo 2.0); format: cell-based, human; details: RDV continuous, TG 30 min, overnight
Experimental: (A) A549 cells were primed with indicated TG, 0.3 μM RDV or DMSO control for 30 min, washed twice with PBS and infected with 0.01 MOI of CoV OC43 for 2 h, after which cells were washed again with PBS and incubated in fresh infection media (OptiMEM supplemented with 0.1 μg/ml TPCK-trypsin for TG primed cells, or fresh media in the continuous presence of RDV. At 24, 48 and 72 hpi, viral RNA extraction was performed on collected supernatants followed by one-step reverse transcription qPCR to detect the relative copy number of hCoV OC43 replicase polyprotein lab RNA, based on relative Ct method. Indicated significance relative to corresponding RDV-treated cells based on 2-way ANOVA Tukey's multiple comparisons test. (B) As in (A), A549 cells were primed continuously with RDV, or for 30 min with indicated TG or DMSO, washed, cultured overnight and subjected to cell viability assay (CellTiter-Glo 2.0 Cell Viability Assay, Promega).

[4] = system: RSV (A2 strain, ATCC VR-1540); test: RSV production from infected HEp2 cells (immuno-detection / RT-qPCR); format: cell-based, human respiratory syncytial virus; details: HEp-2 cells; TG 30 min priming, Riba continuously present; four days post-infection
pdm H1N1 virus = format: cell-based, influenza A virus (A/California/07/2009)
RIG-I, OAS1 and PKR = format: cell-based, pig; details: NPTr cells (TG also NHBE cells and myoblasts); priming before or during infection

CC1=C2CC[C@@H](C)[C@H]2[C@H]2[C@@H](CC1)C2(C)C [(+)-ledene, reference compound]
progeny virus output vs DMSO control (USSR H1N1 virus [1]): reduced virus production like that of TG | progeny virus output (USSR H1N1 virus [2]): dramatic reduction in progeny virus output

Cc1nnsc1C(=O)Nc1ccc(-n2nc(C(F)(F)F)cc2C(F)(F)F)cc1 [BTP2]
progeny virus output vs DMSO control (USSR H1N1 virus [1]): small increase in progeny virus release | cell viability after priming (NPTr cells): Non-toxic

CC(=O)C1=C(O)[C@@H]2[C@H]3c4c[nH]c5cccc(c45)C[C@H]3C(C)(C)N2C1=O [CPA, Cyclopiazonic acid]
reduction in ATP production (NPTr cells; 5 μM CPA for 30 min, 24 h incubation): 8.3% | concentration from which Ca^2+ influx was detected [3]: ≥ 10 µM

CCN(CCO)CCCC(C)Nc1ccnc2cc(Cl)ccc12 (stereo not drawn) [HC, hydroxychloroquine, reference compound]
hCoV OC43 replication / progeny production (human coronavirus OC43): required its continuous presence during infection | SARS-CoV-2 replication (SARS-CoV-2): no consistent effect

CCC(CC)COC(=O)[C@H](C)N[P@](=O)(OC[C@H]1O[C@@](C#N)(c2ccc3c(N)ncnn23)[C@H](O)[C@@H]1O)Oc1ccccc1 [RDV, remdesivir, reference compound]
cell viability (A549 cells): no adverse effect on cell viability

NC(=O)c1ncn([C@@H]2O[C@H](CO)[C@@H](O)[C@H]2O)n1 [Riba, ribavirin, reference compound]
RSV progeny virus production, viral M-gene RNA [4]: significantly inhibited

COc1ccc(OC)c(-c2ccc(NC(=O)c3ccncc3F)cc2)c1 [Synta66]
progeny virus output vs DMSO control (USSR H1N1 virus [1]): small increase in progeny virus release | cell viability after priming (NPTr cells): Non-toxic

C[C@@H]1CC[C@H]2[C@@H](C)C(=O)O[C@@H]3O[C@@]4(C)CC[C@@H]1[C@]32OO4 [artemisinin]
progeny virus output vs DMSO control (USSR H1N1 virus [1]): reduces progeny viral output | progeny virus output vs DMSO control (pdm H1N1 virus): reduces progeny viral output

C=C1C(=O)O[C@@H]2[C@H]3C(C)=CC(=O)C3=C(C)CC[C@@H]12 [dehydroleucodine, reference compound]
progeny virus output vs DMSO control (USSR H1N1 virus [1]): reduced virus production like that of TG | progeny virus output (USSR H1N1 virus [2]): reduced progeny virus output

CC1=C2[C@H](/C=C(\C)C(=O)O)CC[C@@H](C)[C@H]2CC1 [valerenic acid]
progeny virus output vs DMSO control (USSR H1N1 virus [1]): reduced USSR H1N1 virus production like that of TG

tunicamycin
progeny virus output vs DMSO control (USSR H1N1 virus [1]): only slightly reduced virus production | virus production relative to correspondingly infected TG primed cells (USSR H1N1 virus [1]; NPTr cells, […]): 7.5 times | progeny virus output vs DMSO control (pdm H1N1 virus): only slightly reduced virus production | virus production relative to correspondingly infected TG primed cells (pdm H1N1 virus; NPTr cells, […]): 2.8 times | cell viability after priming (NPTr cells): did not affect cell viability | extracellular Ca^2+ influx ([3]; non-toxic doses (CPA up to 5 μM; TG 10 min)): did not induce Ca^2+ influx | expression of type I IFN associated genes in response to infection (RIG-I, OAS1 and PKR): little change in the expression of type I IFN associated genes
